Experimental data published in the NIST ThermoML archive (doi:10.1016/j.jct.2017.02.023).
Numbers after ± are expanded uncertainties.

How the values were obtained:
[1] = xn = mol fraction of the nth substance listed; settings: 81.5 kPa, Liquid, Vibrating tube method
[2] = refractive index (Na D-line) (dimensionless); xn = mol fraction of the nth substance listed; settings: 81.5 kPa, Liquid, Standard Abbe refractometry

CNC1CCCCC1 [N-methylcyclohexylamine] + CCCCC(C)O
Settings	mass density, 298.15 K [kg/m3]	mass density, 308.15 K [kg/m3]	mass density, 318.15 K [kg/m3]	mass density, 328.15 K [kg/m3]	refractive index, 298.15 K	refractive index, 308.15 K	refractive index, 318.15 K	refractive index, 328.15 K
[1], x2 = 0	865.2 ± 1.6	856.57 ± 1.6	847.67 ± 1.6	838.68 ± 1.6	–	–	–	–
[1], x2 = 0.0915	861.23 ± 1.6	852.73 ± 1.6	843.97 ± 1.6	835.05 ± 1.6	–	–	–	–
[1], x2 = 0.1814	857.43 ± 1.6	848.96 ± 1.6	840.23 ± 1.6	831.33 ± 1.6	–	–	–	–
[1], x2 = 0.2693	853.71 ± 1.6	845.27 ± 1.6	836.53 ± 1.6	827.62 ± 1.6	–	–	–	–
[1], x2 = 0.3559	849.84 ± 1.6	841.4 ± 1.6	832.77 ± 1.6	823.77 ± 1.6	–	–	–	–
[1], x2 = 0.44	845.7 ± 1.6	837.27 ± 1.6	828.7 ± 1.6	819.71 ± 1.6	–	–	–	–
[1], x2 = 0.5256	841.05 ± 1.6	832.6 ± 1.6	824.08 ± 1.6	815.12 ± 1.6	–	–	–	–
[1], x2 = 0.608	836.06 ± 1.6	827.68 ± 1.6	819.22 ± 1.6	810.28 ± 1.6	–	–	–	–
[1], x2 = 0.6858	831.06 ± 1.6	822.74 ± 1.6	814.31 ± 1.6	805.47 ± 1.6	–	–	–	–
[1], x2 = 0.7668	825.76 ± 1.6	817.47 ± 1.6	809.16 ± 1.6	800.26 ± 1.6	–	–	–	–
[1], x2 = 0.8463	820.48 ± 1.6	812.27 ± 1.6	804.01 ± 1.6	795.06 ± 1.6	–	–	–	–
[1], x2 = 0.9235	815.36 ± 1.6	807.2 ± 1.6	798.91 ± 1.6	789.93 ± 1.6	–	–	–	–
[2], x2 = 0	–	–	–	–	1.45306 ± 0.0016	1.44812 ± 0.0016	1.4431 ± 0.0016	1.43809 ± 0.0016
[2], x2 = 0.0915	–	–	–	–	1.45049 ± 0.0016	1.44581 ± 0.0016	1.44104 ± 0.0016	1.43628 ± 0.0016
[2], x2 = 0.1814	–	–	–	–	1.4477 ± 0.0016	1.44305 ± 0.0016	1.43835 ± 0.0016	1.43364 ± 0.0016
[2], x2 = 0.2693	–	–	–	–	1.445 ± 0.0016	1.44038 ± 0.0016	1.43572 ± 0.0016	1.43103 ± 0.0016
[2], x2 = 0.3559	–	–	–	–	1.44229 ± 0.0016	1.4377 ± 0.0016	1.43309 ± 0.0016	1.42844 ± 0.0016
[2], x2 = 0.44	–	–	–	–	1.43938 ± 0.0016	1.43484 ± 0.0016	1.43029 ± 0.0016	1.42569 ± 0.0016
[2], x2 = 0.5256	–	–	–	–	1.43598 ± 0.0016	1.43151 ± 0.0016	1.42702 ± 0.0016	1.42247 ± 0.0016
[2], x2 = 0.608	–	–	–	–	1.43233 ± 0.0016	1.42789 ± 0.0016	1.42346 ± 0.0016	1.41895 ± 0.0016
[2], x2 = 0.6858	–	–	–	–	1.42866 ± 0.0016	1.42425 ± 0.0016	1.41985 ± 0.0016	1.41537 ± 0.0016
[2], x2 = 0.7668	–	–	–	–	1.42478 ± 0.0016	1.42041 ± 0.0016	1.41606 ± 0.0016	1.41162 ± 0.0016
[2], x2 = 0.8463	–	–	–	–	1.42103 ± 0.0016	1.4167 ± 0.0016	1.4124 ± 0.0016	1.40799 ± 0.0016
[2], x2 = 0.9235	–	–	–	–	1.41731 ± 0.0016	1.41299 ± 0.0016	1.4087 ± 0.0016	1.40428 ± 0.0016

CNC1CCCCC1 [N-methylcyclohexylamine] + CCCCCC(C)O
Settings	mass density, 298.15 K [kg/m3]	mass density, 308.15 K [kg/m3]	mass density, 318.15 K [kg/m3]	mass density, 328.15 K [kg/m3]	refractive index, 298.15 K	refractive index, 308.15 K	refractive index, 318.15 K	refractive index, 328.15 K
[1], x2 = 0	865.2 ± 1.6	856.57 ± 1.6	847.67 ± 1.6	838.68 ± 1.6	–	–	–	–
[1], x2 = 0.0812	861.21 ± 1.6	852.71 ± 1.6	843.93 ± 1.6	835.06 ± 1.6	–	–	–	–
[1], x2 = 0.1624	857.38 ± 1.6	848.98 ± 1.6	840.27 ± 1.6	831.44 ± 1.6	–	–	–	–
[1], x2 = 0.2448	853.62 ± 1.6	845.28 ± 1.6	836.62 ± 1.6	827.83 ± 1.6	–	–	–	–
[1], x2 = 0.3273	849.83 ± 1.6	841.57 ± 1.6	832.96 ± 1.6	824.22 ± 1.6	–	–	–	–
[1], x2 = 0.4098	845.9 ± 1.6	837.7 ± 1.6	829.15 ± 1.6	820.48 ± 1.6	–	–	–	–
[1], x2 = 0.486	842.05 ± 1.6	833.91 ± 1.6	825.44 ± 1.6	816.83 ± 1.6	–	–	–	–
[1], x2 = 0.5764	837.18 ± 1.6	829.14 ± 1.6	820.75 ± 1.6	812.23 ± 1.6	–	–	–	–
[1], x2 = 0.6517	832.93 ± 1.6	824.98 ± 1.6	816.67 ± 1.6	808.22 ± 1.6	–	–	–	–
[1], x2 = 0.7435	827.66 ± 1.6	819.81 ± 1.6	811.59 ± 1.6	803.21 ± 1.6	–	–	–	–
[1], x2 = 0.8282	822.84 ± 1.6	815.09 ± 1.6	806.94 ± 1.6	798.61 ± 1.6	–	–	–	–
[1], x2 = 0.9132	818.13 ± 1.6	810.46 ± 1.6	802.36 ± 1.6	794.07 ± 1.6	–	–	–	–
[2], x2 = 0	–	–	–	–	1.45306 ± 0.0016	1.44812 ± 0.0016	1.4431 ± 0.0016	1.43809 ± 0.0016
[2], x2 = 0.0812	–	–	–	–	1.45091 ± 0.0016	1.44613 ± 0.0016	1.44128 ± 0.0016	1.43645 ± 0.0016
[2], x2 = 0.1624	–	–	–	–	1.44856 ± 0.0016	1.44387 ± 0.0016	1.4391 ± 0.0016	1.43432 ± 0.0016
[2], x2 = 0.2448	–	–	–	–	1.44622 ± 0.0016	1.44158 ± 0.0016	1.43686 ± 0.0016	1.43214 ± 0.0016
[2], x2 = 0.3273	–	–	–	–	1.44391 ± 0.0016	1.43933 ± 0.0016	1.43466 ± 0.0016	1.42997 ± 0.0016
[2], x2 = 0.4098	–	–	–	–	1.44151 ± 0.0016	1.43699 ± 0.0016	1.43236 ± 0.0016	1.42773 ± 0.0016
[2], x2 = 0.486	–	–	–	–	1.43911 ± 0.0016	1.43464 ± 0.0016	1.43007 ± 0.0016	1.4255 ± 0.0016
[2], x2 = 0.5764	–	–	–	–	1.43598 ± 0.0016	1.43158 ± 0.0016	1.42708 ± 0.0016	1.42258 ± 0.0016
[2], x2 = 0.6517	–	–	–	–	1.43316 ± 0.0016	1.42882 ± 0.0016	1.42438 ± 0.0016	1.41996 ± 0.0016
[2], x2 = 0.7435	–	–	–	–	1.42959 ± 0.0016	1.42534 ± 0.0016	1.421 ± 0.0016	1.41664 ± 0.0016
[2], x2 = 0.8282	–	–	–	–	1.42631 ± 0.0016	1.42213 ± 0.0016	1.41786 ± 0.0016	1.41356 ± 0.0016
[2], x2 = 0.9132	–	–	–	–	1.423 ± 0.0016	1.41886 ± 0.0016	1.41462 ± 0.0016	1.41037 ± 0.0016

CNC1CCCCC1 [N-methylcyclohexylamine] + CCCCCCC(C)O
Settings	mass density, 298.15 K [kg/m3]	mass density, 308.15 K [kg/m3]	mass density, 318.15 K [kg/m3]	mass density, 328.15 K [kg/m3]	refractive index, 298.15 K	refractive index, 308.15 K	refractive index, 318.15 K	refractive index, 328.15 K
[1], x2 = 0	865.2 ± 1.6	856.57 ± 1.6	847.67 ± 1.6	838.68 ± 1.6	–	–	–	–
[1], x2 = 0.0727	861.37 ± 1.6	852.86 ± 1.6	844.07 ± 1.6	835.18 ± 1.6	–	–	–	–
[1], x2 = 0.148	857.59 ± 1.6	849.18 ± 1.6	840.45 ± 1.6	831.62 ± 1.6	–	–	–	–
[1], x2 = 0.2246	853.95 ± 1.6	845.6 ± 1.6	836.92 ± 1.6	828.14 ± 1.6	–	–	–	–
[1], x2 = 0.3025	850.34 ± 1.6	842.06 ± 1.6	833.44 ± 1.6	824.7 ± 1.6	–	–	–	–
[1], x2 = 0.3826	846.62 ± 1.6	838.42 ± 1.6	829.86 ± 1.6	821.17 ± 1.6	–	–	–	–
[1], x2 = 0.4636	842.77 ± 1.6	834.65 ± 1.6	826.15 ± 1.6	817.53 ± 1.6	–	–	–	–
[1], x2 = 0.5484	838.61 ± 1.6	830.58 ± 1.6	822.16 ± 1.6	813.61 ± 1.6	–	–	–	–
[1], x2 = 0.6332	834.36 ± 1.6	826.43 ± 1.6	818.08 ± 1.6	809.6 ± 1.6	–	–	–	–
[1], x2 = 0.7205	829.99 ± 1.6	822.17 ± 1.6	813.9 ± 1.6	805.49 ± 1.6	–	–	–	–
[1], x2 = 0.8128	825.54 ± 1.6	817.82 ± 1.6	809.62 ± 1.6	801.27 ± 1.6	–	–	–	–
[1], x2 = 0.9052	821.3 ± 1.6	813.66 ± 1.6	805.52 ± 1.6	797.23 ± 1.6	–	–	–	–
[2], x2 = 0	–	–	–	–	1.45306 ± 0.0016	1.44812 ± 0.0016	1.4431 ± 0.0016	1.43809 ± 0.0016
[2], x2 = 0.0727	–	–	–	–	1.45123 ± 0.0016	1.44643 ± 0.0016	1.44156 ± 0.0016	1.43676 ± 0.0016
[2], x2 = 0.148	–	–	–	–	1.44931 ± 0.0016	1.44459 ± 0.0016	1.43978 ± 0.0016	1.43507 ± 0.0016
[2], x2 = 0.2246	–	–	–	–	1.44739 ± 0.0016	1.44272 ± 0.0016	1.43794 ± 0.0016	1.43327 ± 0.0016
[2], x2 = 0.3025	–	–	–	–	1.44545 ± 0.0016	1.44084 ± 0.0016	1.43612 ± 0.0016	1.43148 ± 0.0016
[2], x2 = 0.3826	–	–	–	–	1.44348 ± 0.0016	1.43892 ± 0.0016	1.43425 ± 0.0016	1.42963 ± 0.0016
[2], x2 = 0.4636	–	–	–	–	1.44143 ± 0.0016	1.43692 ± 0.0016	1.43233 ± 0.0016	1.42778 ± 0.0016
[2], x2 = 0.5484	–	–	–	–	1.43898 ± 0.0016	1.43456 ± 0.0016	1.43003 ± 0.0016	1.42554 ± 0.0016
[2], x2 = 0.6332	–	–	–	–	1.43641 ± 0.0016	1.43207 ± 0.0016	1.42763 ± 0.0016	1.42323 ± 0.0016
[2], x2 = 0.7205	–	–	–	–	1.4337 ± 0.0016	1.42942 ± 0.0016	1.42503 ± 0.0016	1.42073 ± 0.0016
[2], x2 = 0.8128	–	–	–	–	1.43079 ± 0.0016	1.42658 ± 0.0016	1.42227 ± 0.0016	1.41802 ± 0.0016
[2], x2 = 0.9052	–	–	–	–	1.42779 ± 0.0016	1.42366 ± 0.0016	1.41941 ± 0.0016	1.41523 ± 0.0016
